According to patent publication US8530491B2, “Antimalarial compounds with flexible side-chains” (Medicines for Malaria Venture (MMV), priority 2007, dated 2013):
≈ marks a conversion by molar mass, not a printed value. Where two headings read alike, the source gives them in different places.

Experiments:
S. aureus = test: Antibacterial activity, minimal inhibitory concentration on agar plates; format: cell-based; details: Staphylococcus aureus; complete inhibition of growth on agar plates
E. coli = test: as above; format: cell-based; details: Escherichia coli; complete inhibition of growth on agar plates
P. chabaudi AS [1] = test: Standard 4-day Peters' test against P. chabaudi AS in mice; format: in vivo, Plasmodium chabaudi; details: for ED50 / ED90: Plasmodium chabaudi, 96 h, oral, 4-day Peters' test; for ED50: 50% reduction in parasitaemia; for ED90: 90% reduction in parasitaemia; for ED90 P. chabaudi AS, oral: oral administration, mice (Table 1)
Procedure: Briefly, 20 gr CD1 male mice (Charles Rivers, UK) were kept in specific pathogen-free conditions and fed ad libitum. For oral administration, compounds were dissolved in standard suspending formula (SSV) [0.5% sodium carboxymethylcellulose, 0.5% benzyl alcohol, 0.4% Tween 80, 0.9% NaCl (all Sigma)] and for intraperitoneal or subcutaneous administration compounds were dissolved in 0.5% w/v hydroxypropylmethylcellulose, 0.4% v/v Tween 80, 0.5% V/v benzyl alcohol in de-ionised water]. Mice were infected intravenously with 4×10^6 infected red cells and treated orally (p.o.) with 0.2 ml of a solution of the test compounds two hours (day 0) and on days 1, 2 and 3 post-infection. Parasitaemia was determined by microscopic examination of Giemsa stained blood films taken on day 4. Microscopic counts of blood films from each mouse were processed using GraphPad Prism 4 (GraphPad Software, Inc., CA, USA) and expressed as percentages of inhibition from the arithmetic mean parasitaemias of each group in relation to the untreated group. Compounds were tested in an initial screening at 30 mg/kg/day against P. chabaudi AS (non-resistant) over the period described and percentages of inhibition calculated in relation to the untreated controls. Compounds giving 80% inhibition or above were then tested in the same model under a range of doses over the period described in order to obtain dose response curves and calculate their ED50 and ED90 values. […] From the ED90 values is clear that a number of compounds have exquisite activity in this model and are also tested in P. chabaudi ASP and P. berghei ANKA.

Pf DHFR WT = molecular target: T1, Pf DHFR WT (Plasmodium falciparum, UniProt A7UD81); test: Pf DHFR enzyme inhibition (Ki), wild type; format: biochemical
T1 construct: made in house; host or cells: E. coli BL21(DE3)pLysS
T1 sequence (A7UD81 1-608): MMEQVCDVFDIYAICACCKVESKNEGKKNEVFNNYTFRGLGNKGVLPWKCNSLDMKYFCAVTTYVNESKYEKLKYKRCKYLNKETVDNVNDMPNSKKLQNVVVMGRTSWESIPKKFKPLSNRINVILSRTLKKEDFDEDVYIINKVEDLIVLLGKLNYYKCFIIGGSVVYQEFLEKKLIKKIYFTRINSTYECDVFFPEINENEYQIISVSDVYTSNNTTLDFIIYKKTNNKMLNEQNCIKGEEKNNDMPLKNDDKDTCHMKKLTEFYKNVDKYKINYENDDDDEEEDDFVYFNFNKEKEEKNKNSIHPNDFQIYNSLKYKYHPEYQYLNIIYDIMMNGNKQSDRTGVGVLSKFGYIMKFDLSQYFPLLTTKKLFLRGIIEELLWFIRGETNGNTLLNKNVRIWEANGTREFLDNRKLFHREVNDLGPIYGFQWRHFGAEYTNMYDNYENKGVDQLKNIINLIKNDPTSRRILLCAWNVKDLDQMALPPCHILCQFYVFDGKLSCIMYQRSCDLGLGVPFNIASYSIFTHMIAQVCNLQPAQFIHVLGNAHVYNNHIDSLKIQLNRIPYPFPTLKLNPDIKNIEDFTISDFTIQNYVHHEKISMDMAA

[2] = molecular target: T2, Pf DHFR N51I + C59R + S108N + I164L (Plasmodium falciparum, UniProt A7UD81, C59R/I164L/N51I/S108N); test: biochemical
T2 construct: made in house; host or cells: E. coli BL21(DE3)pLysS
T2 sequence (A7UD81 whole entry N51I/C59R/S108N/I164L): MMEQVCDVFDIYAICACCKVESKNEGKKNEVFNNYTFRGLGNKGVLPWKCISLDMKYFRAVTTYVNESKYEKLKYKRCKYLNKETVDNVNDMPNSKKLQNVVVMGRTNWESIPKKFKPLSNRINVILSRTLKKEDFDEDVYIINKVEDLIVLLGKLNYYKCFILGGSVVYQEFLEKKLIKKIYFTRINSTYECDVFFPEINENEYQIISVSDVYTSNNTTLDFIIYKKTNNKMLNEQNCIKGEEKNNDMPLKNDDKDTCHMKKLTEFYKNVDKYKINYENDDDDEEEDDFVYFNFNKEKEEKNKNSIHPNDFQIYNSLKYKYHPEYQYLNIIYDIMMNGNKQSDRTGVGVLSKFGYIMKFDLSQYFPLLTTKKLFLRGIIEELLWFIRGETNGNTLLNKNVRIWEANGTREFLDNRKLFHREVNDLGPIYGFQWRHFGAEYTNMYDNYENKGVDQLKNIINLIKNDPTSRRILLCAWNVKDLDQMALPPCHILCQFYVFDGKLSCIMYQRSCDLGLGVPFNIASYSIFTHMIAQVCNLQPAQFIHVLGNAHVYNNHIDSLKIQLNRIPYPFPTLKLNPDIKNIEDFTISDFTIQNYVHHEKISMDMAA

[3] = test system: P. falciparum TM4/8.2 (wild type); test: In vitro anti-plasmodial activity, [3H]-hypoxanthine incorporation; format: cell-based, Plasmodium falciparum
[4] = Cytotoxicity in mammalian cells; format: cell-based; details: African green monkey, Vero cells (African green monkey kidney epithelial cells)
P. falciparum Wild Type = test: Anti-malarial activity against P. falciparum in vitro, wild type (Table 1); format: cell-based, Plasmodium falciparum
[5] = test system: P. falciparum Resistant mutant; test: Anti-malarial activity against P. falciparum in vitro, resistant mutant (Table 1); format: cell-based, Plasmodium falciparum; details: read-out: IC50 against P. falciparum in vitro, Resistant mutant
[6] = rat, in vivo
P. chabaudi AS [7] = test: Standard 4-day Peters' test against P. chabaudi AS in mice; format: in vivo, Plasmodium chabaudi; details: s.c. administration, mice (Table 1)
[8] = Oral bioavailability and pharmacokinetics in male Sprague Dawley rats; format: in vivo; details: for Oral BA: i.v. and oral dosing; for Vd / clearance / half-life: rat, plasma; for Vd: intravenous; for clearance / half-life: iv, i.v. dosing; for clearance: read-out: i.v. CL(plasma); for half-life: read-out: i.v. t1/2 (converted)
Procedure: Rats had free access to water throughout the pre- and post-dose sampling period, and access to food was re-instated 4 hours post-dosing. Test compounds were administered intravenously as a 5 minute constant rate infusion (1.0 mL per rat) and orally by gavage (1.0 mL per rat). The IV formulations were typically buffered aqueous solutions containing a co-solvent if required for solubilization. The oral formulations were prepared as suspensions in hydroxypropylmethyl cellulose or carboxymethyl cellulose, each with the addition of Tween 80 and benzyl alcohol. Samples of arterial blood and total urine were collected up to 24 hours post-dose. Arterial blood was collected directly into borosilicate vials (at 4° C.) containing heparin, a protease inhibitor cocktail, potassium fluoride, and EDTA to minimise the potential for ex vivo degradation of the test compound in blood/plasma samples. Once collected, blood samples were centrifuged, supernatant plasma was removed and stored at −20° C., and plasma concentrations of test compound were determined by LCMS.

[9] = Pharmacokinetics of P218 / pro-drug P195 in male Swiss outbred mice; format: in vivo
Procedure: In a separate study, the oral bioavailability of P195, the ester pro-drug of P218 which contains a carboxylic acid side chain was investigated in mice. Male Swiss outbred mice were administered P218 (the free acid) intravenously by bolus tail vein injection at a nominal dose of 5 mg/kg and P195 (the ester pro-drug) orally by gavage at a nominal dose of 20 mg/kg. […] Blood sampling was conducted by cardiac puncture with a single sample per mouse, and two mice per time point over 16 hours post dosing. Blood samples were separated and plasma analyzed by LCMS as described above. The plasma concentration versus time profiles for P218 following IV administration of P218 and following oral administration of the pro-drug P195 are shown in FIG. 9. Plasma concentrations of P218 remained above the lower limit of quantitation (LLQ=0.0014 μM) for 7.5 h following IV administration.

[10] = Plasmodium falciparum, read-out: IC50-P. falciparum TM4/8.2 (WT), TM4/8.2

Compound	MIC (S. aureus) [µM]	MIC (E. coli) [µM]	ED50 (P. chabaudi AS [1]) [mg/kg]	ED90 (P. chabaudi AS [1]) [mg/kg]	Ki (Pf DHFR WT) [nM]	Ki [2] [nM]	IC50 [3, 10] [nM]	IC50 [4] [nM]	also measured
COc1cc(Cc2cnc(N)nc2N)cc(OC)c1OC [Trimethoprim, trimethoprim, reference compound]	1 to 10 (≈ 0.29 to 2.9 µg/mL)	1 to 10 (≈ 0.29 to 2.9 µg/mL)	–	–	–	–	–	–	–
CCOC(=O)CCCOc1ccc2nc(C)cc(OCCCOc3c(N)nc(N)nc3CC)c2c1 [Compound P219, 2,4-diamino-6-ethyl-5-(3-(6-(3-ethoxycarbonylpropoxy)-2-methylquinolin-4-yloxy)propoxy)pyrimidine]	–	–	> 5	> 5	0.52 ± 0.08	1.25 ± 0.22	< 10	–	–
CCc1nc(N)nc(N)c1OCCCOc1cc(C)nc2ccc(OCCCC(=O)O)cc12 [Compound P169, 2,4-diamino-6-ethyl-5-(3-(6-(3-carboxypropoxy)-2-methylquinolin-4-yloxy)propoxy)pyrimidine]	–	–	> 29	> 29	0.15 ± 0.04	0.36 ± 0.01	0.22 ± 0.06	420	IC50 ([3]; read-out: IC50-P. falciparum TM4/8.2 (WT), TM4/8.2): 0.3 ± 0.1 nM
CC1(C)N=C(N)N=C(N)N1OCCCOc1cc(Cl)c(Cl)cc1Cl [WR99210]	–	–	–	–	–	–	–	–	IC50 (P. falciparum Wild Type; wild type): 0.6 nM; IC50 ([5]; resistant mutant): 18 nM; ED90 P. chabaudi AS, oral (P. chabaudi AS [1]): 74.2 mg/kg; Oral BA in rats [6]: <1%; ED90 P. chabaudi AS, s.c. (P. chabaudi AS [7]): 1.1 mg/kg
CCc1nc(N)nc(N)c1OCCCOc1cc(C)nc2cc(F)ccc12 [Compound P157, 2,4-diamino-6-ethyl-5-(3-(7-fluoro-2-methylquinolin-4-yloxy)propoxy)pyrimidine]	> 25	> 25	0.008	0.012	1.26 ± 0.24	3.95 ± 0.06	2.4 ± 0.7	100	Oral BA [8]: 25.5 % of dose; Vd [8]: 15.2 L/kg; clearance [8]: 74.7 mL/min/kg; half-life [8]: 17.6 h
CCc1nc(N)nc(N)c1OCCCOc1ccnc2ccc(F)cc12 [Compound P153, 2,4-diamino-6-ethyl-5-(3-(6-fluoro-quinolin-4-yloxy)propoxy)pyrimidine]	10 to 50 (≈ 3.57 to 17.9 µg/mL)	10 to 50 (≈ 3.57 to 17.9 µg/mL)	0.006	0.013	1.41 ± 0.13	3.41 ± 0.27	0.25 ± 0.1	37	Oral BA [8]: 26 % of dose; Vd [8]: 17.3 L/kg; clearance [8]: 69.6 mL/min/kg; half-life [8]: 15.7 h
CCc1nc(N)nc(N)c1OCCCOc1ccccc1CCC(=O)O [Compound P218, 2,4-diamino-6-ethyl-5-(3-(2-(2-carboxyethyl)phenoxy)propoxy)pyrimidine]	–	–	< 0.63	< 0.63	0.43 ± 0.07	0.54 ± 0.12	6	> 10000	time plasma concentration of P218 remained above LLQ following oral administration of ester prodrug ([9]; P195 oral 20 mg/kg, mice, LLQ=0.0014 μM): 16 h; time plasma concentrations of P218 remained above LLQ following IV administration ([9]; P218 IV 5 mg/kg, mice, LLQ=0.0014 μM): 7.5 h; bioavailability ([9]; male, Swiss outbred, mouse, plasma, oral, 20 mg/kg): ~50%
CCN(CC)CCCC(C)Nc1ccnc2cc(Cl)ccc12 (stereo not drawn) [Chloroquine, chloroquine, reference compound]	–	–	–	–	–	–	–	–	IC50 ([3]; Plasmodium falciparum, read-out: IC50-P. falciparum TM4/8.2 (WT)): 27 nM
CCOC(=O)CCCOc1ccccc1OCCCOc1c(N)nc(N)nc1CC [Compound P217, 2,4-diamino-6-ethyl-5-(3-(2-(3-ethoxycarbonylpropoxy)phenoxy)propoxy)pyrimidine]	–	–	< 0.63	< 0.63	0.69 ± 0.1	3.3 ± 0.52	4	5330	–
CCOC(=O)CCc1ccccc1OCCCOc1c(N)nc(N)nc1CC [Compound P195, 2,4-diamino-6-ethyl-5-(3-(2-(2-ethoxycarbonylethyl)phenoxy)propoxy)pyrimidine]	–	–	0.21	0.69	0.26 ± 0.02	1.88 ± 0.13	2.5 ± 0.7	1250	plasma concentrations of the pro-drug P195 ([9]; oral P195 20 mg/kg, all time points, below lower limit of quantitation): < 1.4 nM
CCc1nc(N)nc(N)c1OCCCOc1cc(C)nc2ccccc12 [Compound P154, 2,4-diamino-6-ethyl-5-(3-(2-methylquinolin-4-yloxy)propoxy)pyrimidine]	> 50	10 to 50 (≈ 3.53 to 17.7 µg/mL)	0.006	0.043	1.29 ± 0.14	4.8 ± 0.36	2 ± 0.8	94	Oral BA [8]: 9.3 % of dose; Vd [8]: 8.8 L/kg; clearance [8]: 84.1 mL/min/kg; half-life [8]: 3.2 h
C[C@H]1[C@@H](O)O[C@@H]2O[C@@]3(C)CC[C@H]4[C@H](C)CC[C@@H]1[C@@]24OO3 [Dihydroartemisinin, reference compound]	–	–	–	–	–	–	–	–	IC50 ([3]; Plasmodium falciparum, read-out: IC50-P. falciparum TM4/8.2 (WT), TM4/8.2, listed as printed in nM): 1.69 ± 0.39 nM
CC1(C)N=C(N)N=C(N)N1c1ccc(Cl)cc1 [Cycloguanil, cycloguanil]	–	–	–	–	–	–	–	–	IC50 (P. falciparum Wild Type; Plasmodium falciparum): 37 nM; IC50 ([5]; Plasmodium falciparum): > 100000 nM; ED90 P. chabaudi AS, oral (P. chabaudi AS [1]): 6.2 mg/kg; Oral BA in rats [6]: 59.3%; ED90 P. chabaudi AS, s.c. (P. chabaudi AS [7]): 3.7 mg/kg
